Test system: Endogenous Huntingtin Protein (capture with MW1 (expanded polyglutamine) or MAB2166 antibody)
Assay: Endogenous Huntingtin Protein Assay (ELISA-based Meso Scale Discovery electrochemiluminescence assay)
Type: cell-based
Settings: MSD electrochemiluminescence platform
Protocol: Compounds of Formula (I), Formula (II), or Formula (III) were tested using the Meso Scale Discovery (MSD) Assay provided in International Application No. PCT/US2016/066042, filed on Dec. 11, 2016 and claiming priority to U.S. Provisional Application U.S. 62/265,652 filed on Dec. 10, 2015, the entire contents of which are incorporated herein by reference.
The Endogenous Huntingtin Protein assay used in Example 1 was developed using the ELISA-based MSD electrochemiluminescence assay platform.
Meso Scale Discovery (MSD) 96-well or 384-well plates were coated overnight at 4° C. with MW1 (expanded polyglutamine) or MAB2166 monoclonal antibody (for capture) at a concentration of 1 μg/mL in PBS (30 μL per well). Plates were then washed three times with 300 μL wash buffer (0.05% Tween-20 in PBS) and blocked (100 μL blocking buffer; 5% BSA in PBS) for 4-5 hours at room temperature with rotational shaking and then washed three times with wash buffer.
Samples (25 μL) were transferred to the antibody-coated MSD plate and incubated overnight at 4° C. After removal of the lysates, the plate was washed three times with wash buffer, and 25 μL of #5656S (Cell signaling; rabbit monoclonal) secondary antibody (diluted to 0.25 μg/mL in 0.05% Tween-20 in blocking buffer) was added to each well and incubated with shaking for 1 Hour at room temperature. Following incubation with the secondary antibody, the wells were rinsed with wash buffer after which 25 μL of goat anti-rabbit SULFO TAG secondary detection antibody (required aspect of the MSD system) (diluted to 0.25 μg/mL in 0.05% Tween-20 in blocking buffer) was added to each well and incubated with shaking for 1 hour at room temperature. After rinsing three times with wash buffer, 150 μL of read buffer T with surfactant (MSD) were added to each empty well, and the plate was imaged on a SI 6000 imager (MSD) according to manufacturers' instructions provided for 96- or 384-well plates.

Molecule	IC50 [nM]
5-(2,8-dimethylimidazo[1,2-a]pyridin-6-yl)-2-(6-{[(3R,4S)-3-fluoro-2,2,6,6-tetramethylpiperidin-4-yl]oxy}pyridazin-3-yl)pyridin-3-ol and 5-(2,8-dimethylimidazo[1,2-a]pyridin-6-yl)-2-(6-{[(3S,4R)-3-fluoro-2,2,6,6-tetramethylpiperidin-4-yl]oxy}pyridazin-3-yl)pyridin-3-ol [Compound 44]	≤ 100
2-(6-{[(1R,3s,5S)-1,5-dimethyl-8-azabicyclo[3.2.1]octan-3-yl]oxy}pyridazin-3-yl)-5-(1H-1,2,3-triazol-1-yl)pyridin-3-ol and 2-(6-{[(1S,3r,5R)-1,5-dimethyl-8-azabicyclo[3.2.1]octan-3-yl]oxy}pyridazin-3-yl)-5-(1H-1,2,3-triazol-1-yl)pyridin-3-ol [Compound 71]	100 to 500
Cc1cn2nc(-c3cnc(-c4ccc(O[C@@H]5CC(C)(C)NC(C)(C)[C@@H]5F)nn4)c(O)c3)cc(C#N)c2n1.Cc1cn2nc(-c3cnc(-c4ccc(O[C@H]5CC(C)(C)NC(C)(C)[C@H]5F)nn4)c(O)c3)cc(C#N)c2n1 (mixture of isomers) [Compound 68, 6-[6-(6-{[(3R,4S)-3-fluoro-2,2,6,6-tetramethylpiperidin-4-yl]oxy}pyridazin-3-yl)-5-hydroxypyridin-3-yl]-2-methylimidazo[1,2-b]pyridazine-8-carbonitrile and 6-[6-(6-{[(3S,4R)-3-fluoro-2,2,6,6-tetramethylpiperidin-4-yl]oxy}pyridazin-3-yl)-5-hydroxypyridin-3-yl]-2-methylimidazo[1,2-b]pyridazine-8-carbonitrile]	≤ 100
CC1(C)C[C@@H](Oc2ccc(-c3ncc(-c4cn[nH]c4)cc3O)nn2)[C@@H](F)C(C)(C)N1 (single isomer, unassigned) [Compound 39, 2-(6-{[(3S,4R)-3-fluoro-2,2,6,6-tetramethylpiperidin-4-yl]oxy}pyridazin-3-yl)-5-(1H-pyrazol-4-yl)pyridin-3-ol or 2-(6-{[(3S,4R)-3-fluoro-2,2,6,6-tetramethylpiperidin-4-yl]oxy}pyridazin-3-yl)-5-(1H-pyrazol-4-yl)pyridin-3-ol]	≤ 100
C[C@@H]1CN(c2ccc(-c3ncc(-c4cn[nH]c4)cc3O)nn2)C[C@H](C)N1 [Compound 86, 2-{6-[(3R,5S)-3,5-dimethylpiperazin-1-yl]pyridazin-3-yl}-5-(1H-pyrazol-4-yl)pyridin-3-ol and 2-{6-[(3S,5R)-3,5-dimethylpiperazin-1-yl]pyridazin-3-yl}-5-(1H-pyrazol-4-yl)pyridin-3-ol]	100 to 500
CCC1CN(c2ccc(-c3ncc(-c4cn[nH]c4)cc3O)nn2)CCN1 (stereo not shown) [Compound 119, 2-[6-(3-ethylpiperazin-1-yl)pyridazin-3-yl]-5-(1H-pyrazol-4-yl)pyridin-3-ol]	≤ 100
CN(c1ncc(-c2ncc(-c3cn[nH]c3)cc2O)nn1)C1CC(C)(C)NC(C)(C)C1 [Compound 135, 2-{3-[methyl(2,2,6,6-tetramethylpiperidin-4-yl)amino]-1,2,4-triazin-6-yl}-5-(1H-pyrazol-4-yl)pyridin-3-ol]	≤ 100
Cc1cn2cc(-c3cnc(-c4ccc(N5C[C@@H](C)N[C@@H](C)C5)nn4)c(O)c3)cnc2n1 [Compound 115, 2-{6-[(3R,5S)-3,5-dimethylpiperazin-1-yl]pyridazin-3-yl}-5-(2-methylimidazo[1,2-a]pyrimidin-6-yl)pyridin-3-ol and 2-{6-[(3S,5R)-3,5-dimethylpiperazin-1-yl]pyridazin-3-yl}-5-(2-methylimidazo[1,2-a]pyrimidin-6-yl)pyridin-3-ol]	100 to 500
Cn1cc2cc(-c3cnc(-c4ccc(O[C@H]5CC(C)(C)NC(C)(C)[C@H]5F)nn4)c(O)c3)cc(F)c2n1 (single isomer, unassigned) [Compound 35, 5-(7-fluoro-2-methyl-2H-indazol-5-yl)-2-(6-{[(3R,4S)-3-fluoro-2,2,6,6-tetramethylpiperidin-4-yl]oxy}pyridazin-3-yl)pyridin-3-ol or 5-(7-fluoro-2-methyl-2H-indazol-5-yl)-2-(6-{[(3S,4R)-3-fluoro-2,2,6,6-tetramethylpiperidin-4-yl]oxy}pyridazin-3-yl)pyridin-3-ol]	≤ 100
CN(c1cnc(-c2ncc(-c3cn[nH]c3)cc2O)nn1)C1CC(C)(C)NC(C)(C)C1 [Compound 162, 2-{6-[methyl(2,2,6,6-tetramethylpiperidin-4-yl)amino]-1,2,4-triazin-3-yl}-5-(1H-pyrazol-4-yl)pyridin-3-ol]	≤ 100
Cc1cn2cc(-c3cnc(-c4ccc(O[C@@H]5CC(C)(C)NC(C)(C)[C@@H]5F)nn4)c(O)c3)cc2c(C)n1.Cc1cn2cc(-c3cnc(-c4ccc(O[C@H]5CC(C)(C)NC(C)(C)[C@H]5F)nn4)c(O)c3)cc2c(C)n1 (mixture of isomers) [Compound 67, 5-(1,3-dimethylpyrrolo[1,2-a]pyrazin-7-yl)-2-(6-{[(3R,4S)-3-fluoro-2,2,6,6-tetramethylpiperidin-4-yl]oxy}pyridazin-3-yl)pyridin-3-ol and 5-(1,3-dimethylpyrrolo[1,2-a]pyrazin-7-yl)-2-(6-{[(3S,4R)-3-fluoro-2,2,6,6-tetramethylpiperidin-4-yl]oxy}pyridazin-3-yl)pyridin-3-ol]	≤ 100
[2H]C([2H])([2H])n1cc(-c2cnc(-c3cnc(N(C)C4CC(C)(C)NC(C)(C)C4)nn3)c(O)c2)cn1 [Compound 142, 5-[1-(^2H3)methyl-1H-pyrazol-4-yl]-2-{3-[methyl(2,2,6,6-tetramethylpiperidin-4-yl)amino]-1,2,4-triazin-6-yl}pyridin-3-ol]	≤ 100
CC1(C)CC(Oc2ccc(-c3ncc(-c4ncco4)cc3O)nn2)CC2(CC2)N1 (stereo not shown) [Compound 28, 2-{6-[(5,5-dimethyl-4-azaspiro[2.5]octan-7-yl)oxy]pyridazin-3-yl}-5-(1,3-oxazol-2-yl)pyridin-3-ol]	≤ 100
CC(C)(C)NC1CCN(c2ncc(-c3ncc(-c4cn[nH]c4)cc3O)nn2)C1 (stereo not shown) [Compound 136, 2-{3-[3-(tert-butylamino)pyrrolidin-1-yl]-1,2,4-triazin-6-yl}-5-(1H-pyrazol-4-yl)pyridin-3-ol]	≤ 100
5-[(2-methylpyrimidin-5-yl)amino]-2-{6-[(3R)-3-(propan-2-yl)piperazin-1-yl]pyridazin-3-yl}pyridin-3-ol and 5-[(2-methylpyrimidin-5-yl)amino]-2-{6-[(3S)-3-(propan-2-yl)piperazin-1-yl]pyridazin-3-yl}pyridin-3-ol [Compound 134]	500 to 1000
2-{6-[(3R,5R)-3,5-dimethylpiperazin-1-yl]pyridazin-3-yl}-5-(7-fluoro-2-methyl-2H-indazol-5-yl)pyridin-3-ol and 2-{6-[(3S,5R)-3,5-dimethylpiperazin-1-yl]pyridazin-3-yl}-5-(7-fluoro-2-methyl-2H-indazol-5-yl)pyridin-3-ol [Compound 106]	≤ 100
Cn1cc2cc(-c3cnc(-c4ccc(N5CCNC6(CC6)C5)nn4)c(O)c3)cc(F)c2n1 [Compound 98, 2-[6-(4,7-diazaspiro[2.5]octan-7-yl)pyridazin-3-yl]-5-(7-fluoro-2-methyl-2H-indazol-5-yl)pyridin-3-ol]	≤ 100
2-(6-{[(3R,4S)-3-fluoro-2,2,6,6-tetramethylpiperidin-4-yl]oxy}pyridazin-3-yl)-5-(imidazo[1,2-a]pyrazin-6-yl)pyridin-3-ol and 2-(6-{[(3S,4R)-3-fluoro-2,2,6,6-tetramethylpiperidin-4-yl]oxy}pyridazin-3-yl)-5-(imidazo[1,2-a]pyrazin-6-yl)pyridin-3-ol [Compound 66]	100 to 500
CC1(C)C[C@H](Oc2ccc(-c3ncc(-n4ccnc4)cc3O)nn2)[C@H](F)C(C)(C)N1 (single isomer, unassigned) [Compound 9, 2-(6-{[(3R,4S)-3-fluoro-2,2,6,6-tetramethylpiperidin-4-yl]oxy}pyridazin-3-yl)-5-(1H-imidazol-1-yl)pyridin-3-ol or 2-(6-{[(3S,4R)-3-fluoro-2,2,6,6-tetramethylpiperidin-4-yl]oxy}pyridazin-3-yl)-5-(1H-imidazol-1-yl)pyridin-3-ol]	100 to 500
CC1(C)CN(c2ccc(-c3ncc(-c4cn[nH]c4)cc3O)nn2)CC(C)(C)N1 [Compound 88, 5-(1H-pyrazol-4-yl)-2-[6-(3,3,5,5-tetramethylpiperazin-1-yl)pyridazin-3-yl]pyridin-3-ol]	100 to 500
Cn1cc2cc(-c3cnc(-c4ccc(N5CC6CC5CN6)nn4)c(O)c3)cc(F)c2n1 (stereo not shown) [Compound 105, 2-[6-(2,5-diazabicyclo[2.2.1]heptan-2-yl)pyridazin-3-yl]-5-(7-fluoro-2-methyl-2H-indazol-5-yl)pyridin-3-ol]	≤ 100
5-[(6-methylpyridin-3-yl)amino]-2-{6-[(3R)-3-(propan-2-yl)piperazin-1-yl]pyridazin-3-yl}pyridin-3-ol and 5-[(6-methylpyridin-3-yl)amino]-2-{6-[(3S)-3-(propan-2-yl)piperazin-1-yl]pyridazin-3-yl}pyridin-3-ol [Compound 127]	≤ 100

Source: US12577226B2, “Compounds for treating Huntington's disease” (PTC THERAPEUTICS, INC., priority 2019, dated 2026)
